We go through 21 compounds from patent publication US20240360157A1, “TYK2 INHIBITORS” (BIOGEN MA INC., priority 2021, published 2024).

In general, IC50 refers to the midpoint of a concentration-inhibition curve.

Assay type in all cases: biochemical
Experiment [1] has as its target human JAK3 catalytic kinase (JH1) domain (Homo sapiens (Human), UniProt P52333). In words: ADP-Glo Kinase Assay, recombinant JAK3 catalytic kinase (JH1) domain. To be noted: recombinant JH1 domain 0.3 nM, 4 μM ATP, JAK3-974 peptide, mean, read-out: JAK3 biochem IC50 (nM) Mean. The procedure, abridged: (§1)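 Enzyme levels: JAK1 4 nM, JAK2 0.2 nM, JAK3 0.3 nM, TYK2 2 nM. Peptide substrate at 50 μM. Reactions ran 100 minutes; ADP formed was converted to luciferase luminescence after ATP depletion. Compounds tested from 10 μM or 1 μM top, 11-point 3-fold dilutions; IC50 from 4-parameter logistic fit of normalized percent activity.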

Experiment [2] deals with human TYK2 catalytic kinase (JH1) domain (Homo sapiens (Human), UniProt P29597). Nature of the experiment: ADP-Glo Kinase Assay, recombinant TYK2 catalytic kinase (JH1) domain. The note with it: recombinant JH1 domain 2 nM, 10 μM ATP, JAK3-974 peptide, mean, read-out: TYK2 biochem IC50 (nM) Mean. Put shortly:
as §1
In general terms: ADP-Glo turns the ADP formed in a reaction into a luminescent signal.

The target of experiment [3] is human JAK1 catalytic kinase (JH1) domain (Homo sapiens (Human), UniProt P23458). Nature of the experiment: ADP-Glo Kinase Assay, recombinant JAK1 catalytic kinase (JH1) domain. To be noted: recombinant JH1 domain 4 nM, 35 μM ATP, JAK3-342 peptide, mean, read-out: JAK1 biochem IC50 (nM) Mean. Put shortly: as §1
Sequence of human JAK1 catalytic kinase (JH1) domain (P23458 875-1153): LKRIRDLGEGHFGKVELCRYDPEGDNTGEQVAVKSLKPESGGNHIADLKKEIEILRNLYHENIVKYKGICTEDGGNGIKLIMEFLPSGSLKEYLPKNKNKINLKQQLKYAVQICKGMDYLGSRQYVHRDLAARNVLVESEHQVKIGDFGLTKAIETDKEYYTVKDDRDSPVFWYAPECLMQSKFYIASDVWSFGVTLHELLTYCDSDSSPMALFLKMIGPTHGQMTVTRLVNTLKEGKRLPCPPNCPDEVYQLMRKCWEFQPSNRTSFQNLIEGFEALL
Experiment [4] addresses human JAK2 catalytic kinase (JH1) domain (Homo sapiens (Human), UniProt O60674). Nature of the experiment: ADP-Glo Kinase Assay, recombinant JAK2 catalytic kinase (JH1) domain. The note with it: recombinant JH1 domain 0.2 nM, 15 μM ATP, JAK3-974 peptide, mean, read-out: JAK2 biochem IC50 (nM) Mean. Put shortly: as §1

Sequence of human JAK2 catalytic kinase (JH1) domain (O60674 849-1124): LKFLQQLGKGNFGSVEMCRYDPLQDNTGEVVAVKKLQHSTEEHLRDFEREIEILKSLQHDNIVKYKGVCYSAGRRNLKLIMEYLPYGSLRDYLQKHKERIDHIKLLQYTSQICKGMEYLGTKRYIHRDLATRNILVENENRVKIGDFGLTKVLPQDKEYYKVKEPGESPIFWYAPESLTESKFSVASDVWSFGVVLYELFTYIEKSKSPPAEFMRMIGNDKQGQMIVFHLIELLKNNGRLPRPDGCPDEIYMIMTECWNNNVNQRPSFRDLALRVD
Sequence of human TYK2 catalytic kinase (JH1) domain (P29597 897-1176): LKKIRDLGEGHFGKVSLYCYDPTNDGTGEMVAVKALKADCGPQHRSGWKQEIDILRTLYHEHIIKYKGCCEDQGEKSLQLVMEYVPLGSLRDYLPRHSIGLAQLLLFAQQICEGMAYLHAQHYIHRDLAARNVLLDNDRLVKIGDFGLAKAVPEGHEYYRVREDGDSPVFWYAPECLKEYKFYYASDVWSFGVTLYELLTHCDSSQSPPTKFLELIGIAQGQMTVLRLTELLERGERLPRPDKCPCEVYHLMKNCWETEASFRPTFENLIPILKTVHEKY
Sequence of human JAK3 catalytic kinase (JH1) domain (P52333 822-1111): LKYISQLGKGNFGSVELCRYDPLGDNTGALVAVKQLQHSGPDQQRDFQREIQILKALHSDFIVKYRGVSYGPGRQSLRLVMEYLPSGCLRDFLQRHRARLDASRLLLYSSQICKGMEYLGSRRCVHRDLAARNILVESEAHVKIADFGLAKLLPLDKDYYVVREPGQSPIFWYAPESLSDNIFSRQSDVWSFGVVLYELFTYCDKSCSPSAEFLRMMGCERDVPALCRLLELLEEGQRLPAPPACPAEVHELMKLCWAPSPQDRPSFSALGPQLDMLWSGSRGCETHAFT

Take `O=C([C@H]1C[C@@H]1F)N1C2CCC1CN(c1ncnn3cc(-c4cnn(C(F)F)c4)cc13)C2` [Example 4, (3-(6-(1-(difluoromethyl)-1H-pyrazol-4-yl)pyrrolo[2,1-f][1,2,4]triazin-4-yl)-3,8-diazabicyclo[3.2.1]octan-8-yl)((1R,2S)-2-fluorocyclopropyl)methanone]: the IC50 is 776 nM in experiment [1], 73.6 nM in experiment [2], 452 nM in experiment [3] and 1450 nM in experiment [4].
On the same counts, the results for `Cn1cc(-c2cc3c(N4CC5CCC(C4)N5C(=O)[C@H]4C[C@H]4F)ncnn3c2)cn1` (single isomer, unassigned) [Example 79] are no less than 10000 nM, 626 nM, 9330 nM and no less than 10000 nM.
For `O=C([C@@H]1C[C@H]1F)N1C2CCC1CN(c1ncnn3cc(-c4ccnc(F)c4)cc13)C2` [Example 164] the same measures were 7250 nM, 48.8 nM, 447 nM and 1300 nM.
On the same counts, the results for `N#Cc1cc(-c2cc3c(N4CC5CCC(C4)N5C(=O)[C@@H]4C[C@H]4F)ccnn3c2)ccn1` [Example 104, 4-(4-(8-((1S,2R)-2-fluorocyclopropane-1-carbonyl)-3,8-diazabicyclo[3.2.1]octan-3-yl)pyrrolo[1,2-b]pyridazin-6-yl)picolinonitrile] are 886 nM, 3.4 nM, 46 nM and 47 nM.
In the case of `COc1cc(-c2nc3c(N4CC5CCC(C4)N5S(=O)(=O)C4CC4)ccnc3[nH]2)ccn1` [Example 196], the IC50 amounted to 1000 nM in experiment [1], 66.3 nM in experiment [2], 216 nM in experiment [3] and 168 nM in experiment [4].
On the same counts, the results for `Cn1cc(-c2nc3c(N4CC5CCC(C4)N5C(=O)[C@@H]4C[C@H]4F)ccnc3[nH]2)cn1` [Example 200, ((1S,2R)-2-fluorocyclopropyl)(3-(2-(1-methyl-1H-pyrazol-4-yl)-3H-imidazo[4,5-b]pyridin-7-yl)-3,8-diazabicyclo[3.2.1]octan-8-yl)methanone] are 78 nM, 0.4 nM, 9 nM and 6 nM.
On the same counts, the results for `Cn1cc(-c2cc3c(N4CC5CCC(C4)N5C(=O)[C@@H]4C[C@H]4F)ccnn3c2)cn1` [Example 159, ((1S,2R)-2-fluorocyclopropyl)(3-(6-(1-methyl-1H-pyrazol-4-yl)pyrrolo[1,2-b]pyridazin-4-yl)-3,8-diazabicyclo[3.2.1]octan-8-yl)methanone] are 263 nM, 1.1 nM, 51 nM and 30 nM.
On the same counts, the results for `COc1cnc(-c2cc3c(N4CC5CCC(C4)N5C(=O)[C@@H]4C[C@H]4F)ccnn3c2)cn1` [Example 124, ((1S,2R)-2-fluorocyclopropyl)(3-(6-(5-methoxypyrazin-2-yl)pyrrolo[1,2-b]pyridazin-4-yl)-3,8-diazabicyclo[3.2.1]octan-8-yl)methanone] are 7440 nM, 54.5 nM, 405 nM and 700 nM.
On to `Cn1cc(-c2cn3ncc(F)c(N4CC5CCC(C4)N5C(=O)[C@@H]4C[C@H]4F)c3n2)cn1` (stereo in doubt) [Example 141, (3-(7-fluoro-2-(1-methyl-1H-pyrazol-4-yl)imidazo[1,2-b]pyridazin-8-yl)-3,8-diazabicyclo[3.2.1]octan-8-yl)((1S,2R)-2-fluorocyclopropyl)methanone], for which the IC50 amounted to 285 nM in experiment [1], 9.4 nM in experiment [2], 57 nM in experiment [3] and 97 nM in experiment [4].
For `N#Cc1ccc(-c2cc3c(N4CC5CCC(C4)N5C(=O)[C@@H]4C[C@H]4F)ccnn3c2)cn1` [Example 103, 5-(4-(8-((1S,2R)-2-fluorocyclopropane-1-carbonyl)-3,8-diazabicyclo[3.2.1]octan-3-yl)pyrrolo[1,2-b]pyridazin-6-yl)picolinonitrile] the same measures were 913 nM, 5.2 nM, 77 nM and 60 nM.
On the same counts, the results for `O=C([C@@H]1CC1(F)F)N1C2CCC1CN(c1ncnn3cc(-c4cnn(C(F)F)c4)cc13)C2` [Example 3, ((S)-2,2-difluorocyclopropyl)(3-(6-(1-(difluoromethyl)-1H-pyrazol-4-yl)pyrrolo[2,1-f][1,2,4]triazin-4-yl)-3,8-diazabicyclo[3.2.1]octan-8-yl)methanone] are 6160 nM, 27.8 nM, 653 nM and 714 nM.
On the same counts, the results for `O=C([C@@H]1C[C@H]1F)N1C2CCC1CN(c1ccnc3[nH]c(-c4ccnnc4)nc13)C2` [Example 207, ((1S,2R)-2-fluorocyclopropyl)(3-(2-(pyridazin-4-yl)-3H-imidazo[4,5-b]pyridin-7-yl)-3,8-diazabicyclo[3.2.1]octan-8-yl)methanone] are 2680 nM, 39.6 nM, 126 nM and 150 nM.
For `CCC(=O)N1C2CCC1CN(c1ncnn3cc(-c4cnn(C(F)F)c4)cc13)C2` [Example 41, 1-(3-(6-(1-(difluoromethyl)-1H-pyrazol-4-yl)pyrrolo[2,1-f][1,2,4]triazin-4-yl)-3,8-diazabicyclo[3.2.1]octan-8-yl)propan-1-one], the IC50 turned out to be 8430 nM in experiment [1], 560 nM in experiment [2], 2260 nM in experiment [3] and 8760 nM in experiment [4].
On the same counts, the results for `O=C([C@H]1C[C@@H]1CO)N1C2CCC1CN(c1ncnn3cc(-c4cnn(C(F)F)c4)cc13)C2` (racemic) [Example 38, Rac-(3-(6-(1-(difluoromethyl)-1H-pyrazol-4-yl)pyrrolo[2,1-f][1,2,4]triazin-4-yl)-3,8-diazabicyclo[3.2.1]octan-8-yl)((1S,2S)-2-(hydroxymethyl)cyclopropyl)methanone] are no less than 10000 nM, 326 nM, 1640 nM and 8260 nM.
On the same counts, the results for `O=C([C@@H]1CC1(F)F)N1C2CCC1CN(c1ccnn3cc(-c4cnn(C(F)F)c4)cc13)C2` [Example 21, ((S)-2,2-difluorocyclopropyl)(3-(6-(1-(difluoromethyl)-1H-pyrazol-4-yl)pyrrolo[1,2-b]pyridazin-4-yl)-3,8-diazabicyclo[3.2.1]octan-8-yl)methanone] are 565 nM, 1.4 nM, 39 nM and 28 nM.
For `COc1nccc(-c2cc3c(N4CC5CCC(C4)N5C(=O)[C@@H]4C[C@H]4F)ccnc3[nH]2)c1F` [Example 247, ((1S,2R)-2-fluorocyclopropyl)(3-(2-(3-fluoro-2-methoxypyridin-4-yl)-1H-pyrrolo[2,3-b]pyridin-4-yl)-3,8-diazabicyclo[3.2.1]octan-8-yl)methanone] the same measures were 168 nM, 1.4 nM, 40 nM and 18 nM.
As to `O=C([C@@H]1C[C@H]1F)N1C2CCC1CN(c1ncnc3[nH]c(-c4ccnnc4)cc13)C2` [Example 234, ((1S,2R)-2-fluorocyclopropyl)(3-(6-(pyridazin-4-yl)-7H-pyrrolo[2,3-d]pyrimidin-4-yl)-3,8-diazabicyclo[3.2.1]octan-8-yl)methanone], the IC50 was found to be 3200 nM in experiment [1], 28.6 nM in experiment [2], 388 nM in experiment [3] and 598 nM in experiment [4].
For `Cn1cc(-c2nc3c(N4CC5CCC(C4)N5S(=O)(=O)C4CC4)ccnc3[nH]2)cn1` [Example 195] the same measures were 306 nM, 20.6 nM, 194 nM and 38 nM.
For `N#Cc1cccc(-c2cc3c(N4CC5CCC(C4)N5C(=O)C4CC4)ncnn3c2)c1` [Example 176] the same measures were 9890 nM, 830 nM, 3560 nM and 10000 nM.
On the same counts, the results for `Cn1cc(-c2cc3c(N4CC5CCC(C4)N5C(=O)C4(F)CC4)ccnc3[nH]2)cn1` [Example 240, (1-fluorocyclopropyl)(3-(2-(1-methyl-1H-pyrazol-4-yl)-1H-pyrrolo[2,3-b]pyridin-4-yl)-3,8-diazabicyclo[3.2.1]octan-8-yl)methanone] are 35 nM, 4.4 nM, 44 nM and 42 nM.
As for `CNc1cc(-c2nc3c(N4CC5CCC(C4)N5C(=O)[C@@H]4C[C@H]4F)ccnc3[nH]2)ccn1` [Example 217, ((1S,2R)-2-fluorocyclopropyl)(3-(2-(2-(methylamino)pyridin-4-yl)-3H-imidazo[4,5-b]pyridin-7-yl)-3,8-diazabicyclo[3.2.1]octan-8-yl)methanone], the IC50 in experiment [1] came out at 107 nM; in experiment [2], 0.4 nM; in experiment [3], 3 nM; in experiment [4], 8 nM.
